Measurements taken from ChEMBL document CHEMBL1649500, “GS-9191 is a novel topical prodrug of the nucleotide analog 9-(2-phosphonylmethoxyethyl)guanine with antiproliferative activity and possible utility in the treatment of human papillomavirus lesions” (Antimicrob Agents Chemother, 2009).
Active and inactive are the calls of the source. The calls are words filed in the database; no cut-off is given here.

Key:
[1] = Cell cycle arrest in human PHK cells assessed as accumulation at S phase at 10 times EC50 after 48 hrs by flow cytometry; assay type: cell-based
[2] = Drug metabolism in human CK cells assessed as PMEG AUC (0 to 32 hrs) at 1 uM by HPLC analysis; assay type: ADME, cell-based; set-up: time < 32 hr, dose 1 uM
Ca-Ski [3] = test: Antiproliferative activity against HPV-transformed human CaSki cells after 7 days by SRB assay; assay type: functional, cell-based; details: 168 h
SiHa [4] = test: Induction of apoptosis in HPV-transformed human SiHa cells assessed as apoptotic cells at 27 nM after 3 days by propidium iodide staining-based flow cytometry; assay type: functional
[5] = test system: Cottontail rabbit papillomavirus; test: Antiviral activity against Cottontail rabbit papillomavirus infected in New Zealand White rabbit assessed as decrease in pailloma size at 0.3% administered topically measured on day 48; assay type: functional, Kappapapillomavirus 2
SiHa [6] = test: Inhibition of DNA synthesis in HPV-transformed human SiHa cells assessed as decrease in BrdU incorporation after 24 to 27 hrs by ELISA; assay type: functional, cell-based
SiHa [7] = test: Induction of apoptosis in HPV-transformed human SiHa cells assessed as apoptotic cells at 2.7 nM after 3 days by propidium iodide staining-based flow cytometry; assay type: functional
[8] = Cell cycle arrest in human PHK cells assessed as accumulation at G2/M phase at 10 times EC50 after 48 hrs by flow cytometry; assay type: cell-based
[9] = Cell cycle arrest in human PHK cells assessed as accumulation at G0/G1 phase at 10 times EC50 after 48 hrs by flow cytometry; assay type: cell-based
SiHa [10] = test: Induction of apoptosis in HPV-transformed human SiHa cells assessed as apoptotic cells at 27 nM after 7 days by propidium iodide staining-based flow cytometry; assay type: functional
Ca-Ski [11] = test: Induction of apoptosis in HPV-transformed human CaSki cells at 2.7 to 270 nM after 3 to 7 days by propidium iodide staining-based flow cytometry; assay type: functional, cell-based
SiHa [12] = test: Induction of apoptosis in HPV-transformed human SiHa cells assessed as viable cells at 27 nM after 3 days by propidium iodide staining-based flow cytometry; assay type: functional; details: 72 h, read-out: Activity
SiHa [13] = test: Antiproliferative activity against HPV-transformed human SiHa cells after 7 days by SRB assay; assay type: functional, cell-based; details: 168 h
[14] = Drug metabolism in human lung fibroblast assessed as cPrPMEDAP AUC (0 to 32 hrs) at 1 uM by HPLC analysis; assay type: ADME; set-up: dose 1 uM, time < 32 hr
SiHa [15] = test: Induction of apoptosis in HPV-transformed human SiHa cells assessed as apoptotic cells at 270 nM after 3 days by propidium iodide staining-based flow cytometry; assay type: functional
HeLa [16] = test: Antiproliferative activity against HPV-transformed human HeLa cells after 7 days by SRB assay; assay type: functional, cell-based; details: 168 h
SiHa [17] = test: Drug metabolism in human SiHa cells assessed as PMEG AUC (0 to 32 hrs) at 1 uM by HPLC analysis; assay type: ADME, cell-based; set-up: dose 1 uM, time < 32 hr
[18] = Antiproliferative activity against human CK after 7 days by SRB assay
Ca-Ski [19] = test: Cell cycle arrest in HPV-transformed human CaSki cells assessed as accumulation at S phase at 10 times EC50 after 48 hrs by flow cytometry; assay type: functional, cell-based
[20] = Antiproliferative activity against HPV-transformed human MS751 cells after 7 days by SRB assay; assay type: functional, cell-based; details: MS751, 168 h
SiHa [21] = test: Inhibition of DNA synthesis in HPV-transformed human SiHa cells assessed as decrease in BrdU incorporation after 3 hrs by ELISA; assay type: functional, cell-based
[22] = Antiproliferative activity against human lung fibroblast after 7 days by SRB assay; details: 168 h
A-431 = test: Cell cycle arrest in human A431 cells assessed as accumulation at S phase at 10 times EC50 after 48 hrs by flow cytometry; assay type: functional, cell-based
ME-180 = test: Antiproliferative activity against HPV-transformed human ME180 cells after 7 days by SRB assay; assay type: functional, cell-based; details: ME-180, 168 h
[23] = test system: Cottontail rabbit papillomavirus; test: Antiviral activity against Cottontail rabbit papillomavirus infected in New Zealand White rabbit assessed as decrease in pailloma size at 0.1% administered topically measured on day 48; assay type: functional, Kappapapillomavirus 2
SiHa [24] = test: Induction of apoptosis in HPV-transformed human SiHa cells assessed as viable cells at 270 nM after 7 days by propidium iodide staining-based flow cytometry; assay type: functional; details: 168 h, read-out: Activity
SiHa [25] = test: Inhibition of DNA synthesis in HPV-transformed human SiHa cells assessed as decrease in BrdU incorporation after 48 to 51 hrs by ELISA; assay type: functional, cell-based
SiHa [26] = test: Induction of apoptosis in HPV-transformed human SiHa cells assessed as apoptotic cells at 270 nM after 7 days by propidium iodide staining-based flow cytometry; assay type: functional
SiHa [27] = test: Induction of apoptosis in HPV-transformed human SiHa cells assessed as viable cells at 27 nM after 7 days by propidium iodide staining-based flow cytometry; assay type: functional; details: 168 h, read-out: Activity
[28] = Antiproliferative activity against human PHK after 7 days by SRB assay
SiHa [29] = test: Induction of apoptosis in HPV-transformed human SiHa cells assessed as viable cells at 270 nM after 3 days by propidium iodide staining-based flow cytometry; assay type: functional; details: 72 h, read-out: Activity
HeLa [30] = test: Induction of apoptosis in HPV-transformed human HeLa cells at 2.7 to 270 nM after 3 to 7 days by propidium iodide staining-based flow cytometry; assay type: functional, cell-based
SiHa [31] = test: Induction of apoptosis in HPV-transformed human SiHa cells assessed as viable cells at 2.7 nM after 3 days by propidium iodide staining-based flow cytometry; assay type: functional; details: 72 h, read-out: Activity
[32] = Antiproliferative activity against PHF after 7 days by SRB assay; set-up: species or system Homo sapiens
[33] = Antiproliferative activity against NHBE cells after 7 days by SRB assay; assay type: cell-based; details: Homo sapiens, 168 h
HT-3 = test: Antiproliferative activity against HPV-non-transformed human HT3 cells after 7 days by SRB assay; assay type: functional, cell-based; details: HT-3, 168 h
SiHa [34] = test: Cell cycle arrest in HPV-transformed human SiHa cells assessed as accumulation at G0/G1 phase at 10 times EC50 after 48 hrs by flow cytometry; assay type: functional
[35] = test system: Cottontail rabbit papillomavirus; test: Antiviral activity against Cottontail rabbit papillomavirus infected in New Zealand White rabbit assessed as decrease in pailloma size at 0.01% administered topically measured on day 48; assay type: functional, Kappapapillomavirus 2
[36] = test system: Cottontail rabbit papillomavirus; test: Antiviral activity against Cottontail rabbit papillomavirus infected in New Zealand White rabbit assessed as effect on viral growth rate at 0.5% administered topically measured on day 48; assay type: functional; details: Kappapapillomavirus 2
SiHa [37] = test: Cell cycle arrest in HPV-transformed human SiHa cells assessed as accumulation at G2/M phase at 10 times EC50 after 48 hrs by flow cytometry; assay type: functional
SiHa [38] = test: Induction of apoptosis in HPV-transformed human SiHa cells assessed as apoptotic cells at 2.7 nM after 7 days by propidium iodide staining-based flow cytometry; assay type: functional
SiHa [39] = test: Inhibition of DNA synthesis in HPV-transformed human SiHa cells assessed as decrease in BrdU incorporation after 6 to 9 hrs by ELISA; assay type: functional, cell-based
SiHa [40] = test: Inhibition of DNA synthesis in HPV-transformed human SiHa cells assessed as decrease in BrdU incorporation after 72 to 75 hrs by ELISA; assay type: functional, cell-based
SCC-4 = test: Antiproliferative activity against HPV-non-transformed human SCC4 cells after 7 days by SRB assay; assay type: functional, cell-based; details: SCC-4, 168 h
SCC-9 = test: Antiproliferative activity against HPV-non-transformed human SCC9 cells after 7 days by SRB assay; assay type: functional, cell-based; details: SCC-9, 168 h
[41] = Antiproliferative activity against HPV-transformed human C4I cells after 7 days by SRB assay; assay type: functional, cell-based; details: C-4I, 168 h
SiHa [42] = test: Cell cycle arrest in HPV-transformed human SiHa cells assessed as accumulation at S phase at 10 times EC50 after 48 hrs by flow cytometry; assay type: functional
[43] = Drug metabolism in human CaSki cells assessed as PMEG AUC (0 to 32 hrs) at 1 uM by HPLC analysis; assay type: ADME, cell-based; set-up: time < 32 hr, dose 1 uM; details: ca-ski
SiHa [44] = test: Inhibition of DNA synthesis in HPV-transformed human SiHa cells assessed as decrease in BrdU incorporation after 3 to 6 hrs by ELISA; assay type: functional, cell-based
SiHa [45] = test: Induction of apoptosis in HPV-transformed human SiHa cells assessed as viable cells at 2.7 nM after 7 days by propidium iodide staining-based flow cytometry; assay type: functional; details: 168 h, read-out: Activity

Q: For `CC(C)COC(=O)[C@H](Cc1ccccc1)NP(=O)(COCCn1cnc2c(NC3CC3)nc(N)nc21)N[C@@H](Cc1ccccc1)C(=O)OCC(C)C` [GS-9191], which Activity [1] is on record?
A: 36.1%

Q: What about the AUC [2] of the same compound?
A: 33.4 µM·h

Q: And the EC50 (Ca-Ski [3])?
A: 2.03 nM

Q: And the Activity (SiHa [4])?
A: 14.6%

Q: And the “inhibition (INH)” value [5]?
A: 70%

Q: And the EC50 (SiHa [6])?
A: 1.8 nM

Q: And the Activity (SiHa [7])?
A: 3.4%

Q: What about the Activity [8] of the same compound?
A: 7.5%

Q: What about the Activity [9] of the same compound?
A: 56.4%

Q: What about the Activity (SiHa [10]) of the same compound?
A: 82.2%

Q: And the Activity (Ca-Ski [11])?
A: Active

Q: And the viability at 0.027 µM (SiHa [12])?
A: 83.7%

Q: And the EC50 (SiHa [13])?
A: 0.03 nM

Q: And the AUC [14]?
A: 835 µM·h

Q: What about the Activity (SiHa [15]) of the same compound?
A: 19.6%

Q: What about the EC50 (HeLa [16]) of the same compound?
A: 0.71 nM

Q: What about the AUC (SiHa [17]) of the same compound?
A: 1960 µM·h

Q: And the EC50 [18]?
A: 2.1 nM

Q: What about the Activity (Ca-Ski [19]) of the same compound?
A: Active

Q: What about the EC50 [20] of the same compound?
A: 0.04 nM

Q: What about the EC50 (SiHa [21]) of the same compound?
A: > 74 nM

Q: And the EC50 [22]?
A: 7.44 nM

Q: And the Activity (A-431)?
A: Active

Q: What about the EC50 (ME-180) of the same compound?
A: 1.83 nM

Q: And the “inhibition (INH)” value [23]?
A: 70%

Q: What about the viability at 0.27 µM (SiHa [24]) of the same compound?
A: 15.5%

Q: What about the EC50 (SiHa [25]) of the same compound?
A: 7.9 nM

Q: And the Activity (SiHa [26])?
A: 84.1%

Q: And the viability at 0.027 µM (SiHa [27])?
A: 17.4%

Q: What about the EC50 [28] of the same compound?
A: 2.91 nM

Q: And the viability at 0.27 µM (SiHa [29])?
A: 79.6%

Q: What about the Activity (HeLa [30]) of the same compound?
A: Active

Q: And the viability at 0.0027 µM (SiHa [31])?
A: 95.2%

Q: And the EC50 [32]?
A: 4.75 nM

Q: What about the EC50 [33] of the same compound?
A: 0.98 nM

Q: And the EC50 (HT-3)?
A: 5.42 nM

Q: What about the Activity (SiHa [34]) of the same compound?
A: 27.1%

Q: And the “inhibition (INH)” value [35]?
A: 53%

Q: And the Activity [36]?
A: inactive

Q: And the Activity (SiHa [37])?
A: 7.3%

Q: And the Activity (SiHa [38])?
A: 33.1%

Q: What about the EC50 (SiHa [39]) of the same compound?
A: 1 nM

Q: And the EC50 (SiHa [40])?
A: 11.5 nM

Q: What about the EC50 (SCC-4) of the same compound?
A: 5.03 nM

Q: What about the EC50 (SCC-9) of the same compound?
A: 15.3 nM

Q: What about the EC50 [41] of the same compound?
A: 0.44 nM

Q: And the Activity (SiHa [42])?
A: 65.6%

Q: What about the AUC [43] of the same compound?
A: 170 µM·h

Q: And the EC50 (SiHa [44])?
A: 7.8 nM

Q: What about the viability at 0.0027 µM (SiHa [45]) of the same compound?
A: 65.5%
